These results are taken from US20230009366A1, “Using Alternating Electric Fields at Different Frequencies to Increase Permeability of the Blood Brain Barrier and also to Provide Other Benefits” (Novocure GmbH, priority 2021, published 2023).

Test [1] relates to U87-MG cells on PCS-201 fibroblasts. Put plainly: 5-ALA uptake (PpIX fluorescence), glioblastoma-fibroblast co-culture. Format: cell-based, human. The method, then: During glioblastoma resection in patients, 5-ALA is used to aid neurosurgeons in delineating between the tumors and surrounding normal brain tissue. Likewise, to distinguish differences in 5-ALA uptake between glioblastoma and normal cells, a co-culture was developed where U87-MG cells were seeded in the center of a bed of PCS-201 fibroblasts and were subjected to TTFields or to no TTFields. Fluorescent and brightfield photomicrographs confirmed the presence of discrete glioblastoma vs. fibroblast cell regions in the co-culture set-up.
In particular, without TTFields exposure, the GBM cells formed many pockets of adherent neurospheres as was previously reported. […] To generate the data depicted in FIG. 18B, fluorescent panels of 5-ALA uptake (and subsequent PpIX fluorescence, Ex=558 nm, Em=583 nm) for no TTFields and TTFields were obtained. Duration of exposures are 2, 6, and 24 h. Quantification of time course of PpIX accumulation (and thus accumulation of fluorescent flux as expressed as photons/s) in the glioblastoma-fibroblast co-culture platform under TTFields exposed vs. unexposed conditions (p<0.001). Statistical analyses consisted of two-way ANOVA for no TTFields vs. TTFields conditions, and n=3 experiments per time point.

Test [2] deals with U87-MG cells. Put plainly: 5-ALA uptake (PpIX fluorescence), single culture. The format is cell-based, human. The method, then:
Experiments were performed to determine the effects of TTFields on uptake of 5-ALA (as measured by PpIX accumulation and its resultant fluorescence) in glioblastoma cells. Because it is difficult to distinguish the margin between tumor and normal cells using the present 5-ALA bioassay, the measurement of PpIX fluorescence was used to address this issue. Investigations were run to determine whether permeation of 5-ALA through the cellular membrane and into the glioblastoma cells could be increased with TTFields exposure. U87-MG cells were exposed or unexposed to TTFields, each for durations of 6-24 h.
To generate the data depicted in FIG. 18A, protoporphyrin IX (PpIX) fluorescence panels were obtained for TTFields-unexposed vs. TTFields-exposed U87-MG cells after 6 and 24 h of exposure. […] All monovariant statistical comparisons between no TTFields vs. TTFields samples done by Student's t-test for n=3 experiments per time point.

Test [3] has as its system U87-MG/eGFP-fLuc cells. Put plainly: Reversibility of TTFields-induced uptake. Format: cell-based, human. The settings on record: TTFields 24 h vs none vs TTFields 24 h followed by no TTFields 24 h. Here is the method: To assess the reversibility of the effect of TTFields on cancer cells, U87-MG/eGFP-fLuc cells were subjected to three conditions: (1) No TTFields exposure, standard cell culture conditions (37° C., […], 5% CO2), (2) TTFields exposure for 24 h and (3) TTFields exposure for 24 h followed by no TTFields exposure for 24 h. The readouts of BLI, PpIX fluorescence (5-ALA product) and Dextran-FITC (4 kDa) fluorescence were acquired. All experimental conditions were done in triplicate. […] Here, NS=not significant; BLI=bioluminescent imaging; eGFP=enhanced green fluorescence protein; fLuc=firefly luciferase; 5-ALA=5 aminolevulinic acid; FITC=fluorescein isothiocyanate; PpIX=protoporphyrin IX; and FL=fluorescence.
In vitro tumor treating field apparatus: The coverslips were transferred to a ceramic dish of the Inovitro™ system, which in turn was mounted onto Inovitro™ base plates (Novocure Ltd., Haifa, Israel). Tumor treating fields at 200 kHz (1-4 V/cm) were applied through an Inovitro™ power generator. Incubator ambient temperatures spanned 20-27° C. with a target temperature of 37° C. in the ceramic dishes upon application of the TTFields. Duration of TTFields exposure lasted anywhere from 0.5 to 72 h, after which coverslips were removed and processed for the appropriate bioassays (see below). […]

For test [4], the system named is MDA-MB-435 human melanoma cell line cells. Put plainly: 7-AAD accumulation by flow cytometry. Format: cell-based. Here is the method: FIG. 22A depicts the results of an experiment performed to determine how alternating electric fields affect the permeability of the cell membranes of MDA-MB-435 human melanoma cell line cells. In this experiment, MDA-MB-435 cells were treated with an alternating electric field at 150 kHz with a field strength of 1.62 V/cm for 24 hours, at an ambient temperature of 18° C. and a dish temperature of 37° C. (The dish temperature in this and other examples is higher than the ambient temperature due to heating caused by the alternating electric fields.) After the first 23.75 hours, 7-AAD was added to the culture and incubated for 15 minutes during which time the alternating electric fields was continued (to complete the 24 hour period). After this 15 minute period, alternating electric field application was terminated and the cells were incubated at room temperature for an additional 15 minutes.
In a variation of this experiment, MDA-MB-435 human melanoma cell line cells were treated with an alternating electric field at 150 kHz with a field strength of 1.62V/cm for 24 hours, at an ambient temperature of 18° C. and a dish temperature of 37° C. After this 24 hour period, the alternating electric fields were turned off for 15 minutes, after which the 7-AAD was added. After waiting an additional 15 minutes, the percentage of cells with increased accumulation of the fluorescent 7-AAD was determined using flow cytometry.

Test [5] concerns U87-MG cells. Put plainly: 7-AAD accumulation by flow cytometry. Format: cell-based, human. The settings on record: 300 kHz, 1.62 V/cm RMS, 24 h; only sample incubated with 7-AAD while subjected to field. Here is the method:
FIG. 21D depicts the results of an experiment to test how quickly the permeability drops back down after cessation of the alternating electric fields. More specifically, 7-Aminoactinomycin D (7-AAD) is a fluorescent chemical compound with a strong affinity for DNA. […] In this experiment, the cells were treated with an alternating electric field at 300 kHz with a field strength of 1.62 V/cm RMS for 24 hours, at an ambient temperature of 18° C. 7-AAD was introduced into samples at five different times: 15 minutes prior to the cessation of the alternating electric field; immediately after cessation of the alternating electric field; and 15, 30, and 60 minutes after cessation of the alternating electric field. In each case, the cells were incubated with 7-AAD for 30 minutes after introduction of the 7-AAD, followed by flow cytometry analysis of the percentage of cells with increased accumulation of the fluorescent 7-AAD for each of the different timings.
In this experiment, the cells were treated with an alternating electric field at different frequencies with a field strength of 1.62 V/cm RMS for a total of 24 hours, at an ambient temperature of 18° C. and a dish temperature of 37° C. After the first 23.75 hours, 7-AAD was added to the culture and incubated for 15 minutes during which time the alternating electric fields was continued (to complete the 24 hour period). […]

Test [6] relates to GBM39 cells. Put plainly: Drug sensitivity with TTFields. The format is cell-based, human. The settings on record: TTFields for 3 days vs no TTFields.
Test [7] relates to pcGBM2/GFP-Luc cells.
Test [8] relates to U87-MG/GFP-Luc cells. Put plainly: Drug sensitivity / synergy with TTFields. Format: cell-based, human.
Test [9] relates to human glioblastoma cells. Put plainly: Growth inhibition by TTFields plus Withaferin A. Format: cell-based.
For test [10], the system named is GBM39/Luc cells. Put plainly: Drug sensitivity / synergy with TTFields. The format is cell-based, human.
Test [11] concerns U87-MG/eGFP-fLuc cells. Put plainly: Annexin-V-APC binding (apoptosis positive control). The format is cell-based, human. Conditions: 21 μM, TTFields-unexposed samples.
Protocol: Initially, the impact of TTFields on the binding of Annexin-V-APC to the membrane of U87-MG/eGFP-fLuc cells was measured. Annexin-V-APC binding is a signature of early apoptosis which is characterized by ruffling of the membrane.
Test [12] deals with MDA-MB-435 cells, doxorubicin resistant. Put plainly: Intracellular accumulation of doxorubicin. Format: cell-based, human. The settings on record: 10 μM, one hour; 150 kHz, 1.62 V/cm fields.
Test [13] concerns MES-SA cells. Put plainly: Intracellular accumulation of doxorubicin. The format is cell-based. Conditions: 10 μM, one hour; 150 kHz, 1.62 V/cm RMS, 24 hours.
Protocol: FIG. 26C depicts the results of another experiment performed to determine how 150 kHz alternating electric fields affect the permeability of the cell membranes of MES-SA cells to doxorubicin (543.52 g/mol). In this experiment, MES-SA cells were treated with an alternating electric field at 150 kHz with a field strength of 1.62 V/cm RMS for 24 hours. After the first 23 hours, doxorubicin at a concentration of 10 μM was added and incubated for one hour during which time the alternating electric fields was continued (to complete the 24 hour period). The intracellular accumulation of doxorubicin was then measured.
The subject of test [14] is MDA-MB-235 cells. Put plainly: Drug sensitivity / synergy with TTFields. Format: cell-based.
In test [15] the test system is MDA-MB-435 cells, wild type. Put plainly: Intracellular accumulation of doxorubicin. The settings on record: 10 μM, one hour; 150 kHz, 1.62 V/cm fields. The format is cell-based, human.
The test system of test [16] is MCF-7 cells, mitoxantrone resistant. Put plainly: Intracellular accumulation of mitoxantrone. The format is cell-based, human. Conditions: 2 μM, one hour; 150 kHz, 1.62 V/cm fields. Here is the method:
(§1) FIG. 22C depicts the results of a similar experiment using MCF-7 human breast adenocarcinoma cell line cells and mitoxantrone (444.481 g/mol). In this experiment, both wild type and mitoxantrone resistant variants of MCF-7 cells were treated with an alternating electric field at 150 kHz with a field strength of 1.62 V/cm for 23 hours. After this 23 hour period, mitoxantrone at a concentration of 2 μM was added and incubated for one hour, during which time the alternating electric fields was continued. The intracellular accumulation of mitoxantrone was then measured. The intracellular accumulation of mitoxantrone increased for both the wild type cells (compare bar 1 to bar 3) and the mitoxantrone resistant cells (compare bar 2 to bar 4).

In test [17] the test system is MCF-7 cells, wild type. Put plainly: Intracellular accumulation of mitoxantrone. The format is cell-based, human. The settings on record: 2 μM, one hour; 150 kHz, 1.62 V/cm fields. Here is the method:
as §1

[18] abbreviates: TTFields for 3 days vs no TTFields.

In the case of `NCC(=O)CCC(=O)O` [5-ALA, 5-aminolevulinic acid], the “ratio of PpIX fluorescence intensity, U87-MG cells over PCS-201 fibroblast cells” value in [1] (24 h TTFields vs no TTFields, p=0.043) was “significantly increased”. Moreover, in [1] (TTFields-exposed vs unexposed co-cultures, 2, 6, 24 h), the “rate of PpIX fluorescence intensity increase” value is recorded as “significantly augmented”. In addition, the “uptake of 5-ALA (PpIX fluorescence)” value in [2] (6 h TTFields vs no TTFields, p=0.047) is reported as “significantly increased uptake”; in [2] (24 h TTFields vs no TTFields, p=0.011), “increase was maintained”. Moreover, the “reversibility of increased uptake” value in [3] was “reversibly increase uptake”.
For `Cc1c2oc3c(C)c(N)cc(C(=O)N[C@@H]4C(=O)N[C@H](C(C)C)C(=O)N5CCC[C@H]5C(=O)N(C)CC(=O)N(C)[C@@H](C(C)C)C(=O)O[C@@H]4C)c3nc-2c(C(=O)N[C@@H]2C(=O)N[C@H](C(C)C)C(=O)N3CCC[C@H]3C(=O)N(C)CC(=O)N(C)[C@@H](C(C)C)C(=O)O[C@@H]2C)c(N)c1=O` [7-AAD, 7-Aminoactinomycin D], the “percentage of cells with increased accumulation of 7-AAD” value is given as approximately 20% in test [4] (150 kHz, 1.62V/cm, 24 h, 7-AAD added 15 minutes after fields turned off); approximately 66% in test [4] (150 kHz, 1.62 V/cm, 24 h, 7-AAD added for last 15 minutes of field); “less than 5%” in test [4] (control, alternating electric fields not applied). For the same compound, the “accumulation of 7-AAD” value in [5] was “significant increase in accumulation”.
Consider `O=NN(CCCl)C(=O)NC1CCCCC1` [Lomustine], for which the “sensitivity of cells to drug” value in test [6], in [7] (setting [18]) and in test [8] (setting [18]) was “improves the sensitivity” in each case.
`CC1=C(CO)C(=O)O[C@@H]([C@@H](C)[C@H]2CC[C@H]3[C@@H]4C[C@H]5O[C@]56[C@@H](O)C=CC(=O)[C@]6(C)[C@H]4CC[C@]23C)C1` [Withaferin A]: in test [9], the “growth of human glioblastoma cells, TTFields in conjunction with compound” value was “synergistically inhibited the growth”. Also, the “synergy of TTFields plus drug” value in test [7], in test [8] and in test [10] was “synergy was found” throughout. For the same compound, in test [11], the “Annexin-V-APC binding visualized via fluorescence microscopy” value was “could be visualized”.
On to `COc1cccc2c1C(=O)c1c(O)c3c(c(O)c1C2=O)C[C@@](O)(C(=O)CO)C[C@@H]3O[C@H]1C[C@H](N)[C@H](O)[C@H](C)O1` [doxorubicin], for which the “intracellular accumulation of doxorubicin” value in [12] and in [15] was “increased” each time. In [13], the “increase of intracellular accumulation of doxorubicin” value is listed as “more than 2 ×”. Also, the “synergy of TTFields plus drug” value in [14] is “Evidence of synergy”. Moreover, in [14] (setting [18]), the “sensitivity of cells to drug” value is recorded as “improves the sensitivity”.
For the compound `O=C1c2c(O)ccc(O)c2C(=O)c2c(NCCNCCO)ccc(NCCNCCO)c21` [mitoxantrone], the “intracellular accumulation of mitoxantrone” value in test [16] and in [17] was “increased” each time.
